Results published in ChEMBL document CHEMBL1201862, “PubChem BioAssay data set” (2004).
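Protocol summary: plate cells (96-well), add compound at 5 concentrations, incubate 48 h, interpolate endpoints linearly. Abbreviation: GI50, concentration required for 50% inhibition of growth.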 Calls of active or inactive are those of the source. No stated cut-off is given here; in the data, active = GI50 up to about 1.1 µM and inactive = higher.

Legend:
Test in all cases: NCI-60 cell line screen, 48 h
IGROV-1 = tested on: IGROV-1
DU-145 = tested on: DU-145
MOLT-4 = tested on: MOLT-4
SF-268 = tested on: SF-268
TK-10 = tested on: TK-10
U-251 = tested on: U-251
NCI-H23 = tested on: NCI-H23
SF-295 = tested on: SF-295
UO-31 = tested on: UO-31
A498 = tested on: A498
HT-29 = tested on: HT-29
T47D = tested on: T47D
BT-549 = tested on: BT-549
OVCAR-8 = tested on: OVCAR-8
SR = tested on: SR
SK-MEL-2 = tested on: SK-MEL-2
KM12 = tested on: KM12
HCC 2998 = tested on: HCC 2998
SK-MEL-28 = tested on: SK-MEL-28
OVCAR-3 = tested on: OVCAR-3

C/C(=N\NC(=S)N1CCN(c2ccccn2)CC1)c1cccc2cccnc12
GI50 (IGROV-1): 5.79 µM (inactive)
GI50 (DU-145): 3.56 µM (inactive)
GI50 (MOLT-4): 3.21 µM (inactive)
GI50 (SF-268): 5.08 µM (inactive)
GI50 (TK-10): 6.31 µM (inactive)
GI50 (U-251): 4.12 µM (inactive)
GI50 (NCI-H23): 11.5 µM (inactive)
GI50 (SF-295): 3.37 µM (inactive)
GI50 (UO-31): 4.36 µM (inactive)
GI50 (A498): 12 µM (inactive)
GI50 (HT-29): 3.61 µM (inactive)
GI50 (T47D): 3.68 µM (inactive)
GI50 (BT-549): 14.3 µM (inactive)
GI50 (OVCAR-8): 3.43 µM (inactive)
GI50 (SR): 0.859 µM (active)
GI50 (SK-MEL-2): 2.51 µM (inactive)
GI50 (KM12): 3.9 µM (inactive)
GI50 (HCC 2998): 5.47 µM (inactive)
GI50 (SK-MEL-28): 6.58 µM (inactive)
GI50 (OVCAR-3): 3.44 µM (inactive)

COC(=O)C1CC(C=[N+](C)C)=C(SC)N1C(=O)OCc1ccccc1 (stereo not given)
GI50 (IGROV-1): > 100 µM (inactive)
GI50 (DU-145): > 100 µM (inactive)
GI50 (MOLT-4): > 100 µM (inactive)
GI50 (SF-268): > 100 µM (inactive)
GI50 (TK-10): > 100 µM (inactive)
GI50 (U-251): > 100 µM (inactive)
GI50 (NCI-H23): > 100 µM (inactive)
GI50 (SF-295): > 100 µM (inactive)
GI50 (UO-31): > 100 µM (inactive)
GI50 (A498): > 100 µM (inactive)
GI50 (HT-29): > 100 µM (inactive)
GI50 (T47D): > 100 µM (inactive)
GI50 (BT-549): > 100 µM (inactive)
GI50 (OVCAR-8): > 100 µM (inactive)
GI50 (SR): > 100 µM (inactive)
GI50 (SK-MEL-2): > 100 µM (inactive)
GI50 (KM12): > 100 µM (inactive)
GI50 (HCC 2998): > 100 µM (inactive)
GI50 (SK-MEL-28): > 100 µM (inactive)
GI50 (OVCAR-3): > 100 µM (inactive)

COC(=O)c1ccccc1/C=C1\Cc2ccc(C)c(C)c2C1=O
GI50 (IGROV-1): > 100 µM (inactive)
GI50 (DU-145): > 100 µM (inactive)
GI50 (MOLT-4): > 100 µM (inactive)
GI50 (SF-268): 54.5 µM (inactive)
GI50 (TK-10): > 100 µM (inactive)
GI50 (U-251): 48.6 µM (inactive)
GI50 (NCI-H23): > 100 µM (inactive)
GI50 (SF-295): 77.8 µM (inactive)
GI50 (UO-31): > 100 µM (inactive)
GI50 (A498): > 100 µM (inactive)
GI50 (HT-29): > 100 µM (inactive)
GI50 (T47D): > 100 µM (inactive)
GI50 (BT-549): > 100 µM (inactive)
GI50 (OVCAR-8): > 100 µM (inactive)
GI50 (SR): > 100 µM (inactive)
GI50 (SK-MEL-2): > 100 µM (inactive)
GI50 (KM12): > 100 µM (inactive)
GI50 (HCC 2998): > 100 µM (inactive)
GI50 (SK-MEL-28): > 100 µM (inactive)
GI50 (OVCAR-3): > 100 µM (inactive)

COc1ccc(-n2c(C)nc3ccc(NC(=S)Nc4ccccc4)cc3c2=O)cc1
GI50 (IGROV-1): > 100 µM (inactive)
GI50 (DU-145): > 100 µM (inactive)
GI50 (MOLT-4): 32.1 µM (inactive)
GI50 (SF-268): > 100 µM (inactive)
GI50 (TK-10): > 100 µM (inactive)
GI50 (U-251): > 100 µM (inactive)
GI50 (NCI-H23): 52.7 µM (inactive)
GI50 (SF-295): > 100 µM (inactive)
GI50 (UO-31): > 100 µM (inactive)
GI50 (A498): > 100 µM (inactive)
GI50 (HT-29): 62.4 µM (inactive)
GI50 (T47D): 44.6 µM (inactive)
GI50 (BT-549): 70 µM (inactive)
GI50 (OVCAR-8): > 100 µM (inactive)
GI50 (SR): 60.7 µM (inactive)
GI50 (SK-MEL-2): 56.1 µM (inactive)
GI50 (KM12): 72.3 µM (inactive)
GI50 (HCC 2998): 26.2 µM (inactive)
GI50 (SK-MEL-28): 96.2 µM (inactive)
GI50 (OVCAR-3): 34.8 µM (inactive)

CC1OC1P(=O)(O)O (stereo not given)
GI50 (IGROV-1): > 100 µM (inactive)
GI50 (DU-145): > 100 µM (inactive)
GI50 (MOLT-4): > 100 µM (inactive)
GI50 (SF-268): > 100 µM (inactive)
GI50 (TK-10): > 100 µM (inactive)
GI50 (U-251): > 100 µM (inactive)
GI50 (NCI-H23): > 100 µM (inactive)
GI50 (SF-295): > 100 µM (inactive)
GI50 (UO-31): > 100 µM (inactive)
GI50 (A498): > 100 µM (inactive)
GI50 (HT-29): > 100 µM (inactive)
GI50 (T47D): > 100 µM (inactive)
GI50 (BT-549): > 100 µM (inactive)
GI50 (OVCAR-8): > 100 µM (inactive)
GI50 (SR): > 100 µM (inactive)
GI50 (SK-MEL-2): > 100 µM (inactive)
GI50 (KM12): > 100 µM (inactive)
GI50 (HCC 2998): > 100 µM (inactive)
GI50 (SK-MEL-28): > 100 µM (inactive)
GI50 (OVCAR-3): > 100 µM (inactive)
